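Tested at 5 concentrations; 48 h exposure; 96-well plates; endpoints linearly interpolated, else capped at highest concentration. GI50 marks 50% less growth.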 Activity calls are given as the source filed them. No stated cut-off is given here; in the data, active = GI50 up to about 1.1 µM and inactive = higher.
Tests used:
Assay in all cases: inhibition of tumour cell growth, NCI panel, 48 h
[1] = tested on: 786-0
[2] = tested on: A498
[3] = tested on: A549
[4] = tested on: ACHN
[5] = tested on: BT-549
[6] = tested on: CAKI-1
[7] = tested on: CCRF-CEM
[8] = tested on: COLO 205
[9] = tested on: DU-145
[10] = tested on: EKVX
[11] = tested on: HCT-116
[12] = tested on: HCT-15
[13] = tested on: HL-60
[14] = tested on: HOP-62
[15] = tested on: HOP-92
[16] = tested on: HT-29
[17] = tested on: Hs-578T
[18] = tested on: IGROV-1
[19] = tested on: K562
[20] = tested on: KM12
[21] = tested on: LOX IMVI
[22] = tested on: M14
[23] = tested on: MCF7
[24] = tested on: MDA-MB-231
[25] = tested on: MDA-MB-435
[26] = tested on: MDA-N
[27] = tested on: MOLT-4
[28] = tested on: Malme-3M
[29] = tested on: NCI-H226
[30] = tested on: NCI-H23
[31] = tested on: NCI-H460
[32] = tested on: NCI-H522
[33] = tested on: NCI/ADR-RES
[34] = tested on: OVCAR-3
[35] = tested on: OVCAR-4
[36] = tested on: OVCAR-5
[37] = tested on: OVCAR-8
[38] = tested on: PC-3
[39] = tested on: RPMI-8226
[40] = tested on: RXF 393
[41] = tested on: SF-268
[42] = tested on: SF-295
[43] = tested on: SF-539
[44] = tested on: SK-MEL-28
[45] = tested on: SK-MEL-2
[46] = tested on: SK-MEL-5
[47] = tested on: SK-OV-3
[48] = tested on: SN12C
[49] = tested on: SNB-19
[50] = tested on: SNB-75
[51] = tested on: SR
[52] = tested on: SW-620
[53] = tested on: T47D
[54] = tested on: TK-10
[55] = tested on: U-251
[56] = tested on: UACC-257
[57] = tested on: UACC-62
[58] = tested on: UO-31

`N#CC(C#N)=Cc1c[nH]c(=O)[nH]c1=O` was tested, and the GI50 [1] was > 100 µM (inactive), the GI50 [2] was > 100 µM (inactive) and the GI50 [3] was > 100 µM (inactive). The GI50 [4] was > 100 µM (inactive), the GI50 [5] was > 100 µM (inactive) and the GI50 [6] was > 100 µM (inactive). The GI50 [7] was 17.8 µM (inactive), the GI50 [8] was > 100 µM (inactive) and the GI50 [9] was > 100 µM (inactive). The GI50 [10] was > 100 µM (inactive), the GI50 [11] was > 100 µM (inactive) and the GI50 [12] was greater than 100 µM. For the same molecule, the GI50 [13] was > 100 µM (inactive), the GI50 [14] was > 100 µM (inactive) and the GI50 [15] was > 100 µM (inactive). For the same molecule, the GI50 [16] was > 100 µM (inactive), the GI50 [17] was > 100 µM (inactive) and the GI50 [18] was > 100 µM (inactive). For the same molecule, the GI50 [19] was > 100 µM (inactive), the GI50 [20] was > 100 µM (inactive) and the GI50 [21] was > 100 µM (inactive). The GI50 [22] was > 100 µM (inactive), the GI50 [23] was > 100 µM (inactive) and the GI50 [24] was > 100 µM (inactive). The GI50 [25] was > 100 µM (inactive), the GI50 [26] was > 100 µM (inactive) and the GI50 [27] was 43.1 µM (inactive). The GI50 [28] was 6.35 µM (inactive), the GI50 [29] was > 100 µM (inactive) and the GI50 [30] was > 100 µM (inactive). For the same molecule, the GI50 [31] was > 100 µM (inactive), the GI50 [32] was 41 µM (inactive) and the GI50 [33] was > 100 µM (inactive). The GI50 [34] was > 100 µM (inactive), the GI50 [35] was > 100 µM (inactive) and the GI50 [36] was > 100 µM (inactive). For the same molecule, the GI50 [37] was > 100 µM (inactive), the GI50 [38] was > 100 µM (inactive) and the GI50 [39] was > 100 µM (inactive). The GI50 [40] was > 100 µM (inactive), the GI50 [41] was > 100 µM (inactive) and the GI50 [42] was > 100 µM (inactive). The GI50 [43] was > 100 µM (inactive), the GI50 [44] was > 100 µM (inactive) and the GI50 [45] was > 100 µM (inactive). For the same molecule, the GI50 [46] was > 100 µM (inactive), the GI50 [47] was > 100 µM (inactive) and the GI50 [48] was > 100 µM (inactive). For the same molecule, the GI50 [49] was > 100 µM (inactive), the GI50 [50] was > 100 µM (inactive) and the GI50 [51] was 0.152 µM (active). The GI50 [52] was 54.2 µM (inactive), the GI50 [53] was > 100 µM (inactive) and the GI50 [54] was > 100 µM (inactive). For the same molecule, the GI50 [55] was > 100 µM (inactive), the GI50 [56] was > 100 µM (inactive) and the GI50 [57] was > 100 µM (inactive). For the same molecule, the GI50 [58] was > 100 µM (inactive).

From ChEMBL document CHEMBL1201862, “PubChem BioAssay data set” (2004)
